Measured values as given in the SangsterLogP compilation.

Row | logP | Compound
1 | 0.82 | CCN1C(=O)C(=O)c2c(cccc2[N+](=O)[O-])C1=O
2 | 2.08 | CC(C)CN1C(=O)C(=O)c2ccccc2C1=O
3 | 0.78 | CCN(CC)C(=O)c1cccc2c1C(=O)C(=O)N(CC)C2=O
4 | 0.9 | CCN1C(=O)C(=O)c2c(OC)cccc2C1=O
5 | 1.13 | CCN1C(=O)C(=O)c2ccccc2C1=O
6 | 1.43 | CCN1C(=O)C(=O)c2c(Cl)cccc2C1=O
7 | -0.5 | CCN1C(=O)C(=O)c2c(C(N)=O)cccc2C1=O
8 | 2.18 | CCCCN1C(=O)C(=O)c2ccccc2C1=O
9 | 1.49 | CCN1C(=O)C(=O)c2ccc(OC)cc2C1=O
10 | 0.41 | CCN1C(=O)C(=O)c2c(C#N)cccc2C1=O

The next lines start with the molecule.

Row | Compound | logP
11 | CN1C(=O)C(=O)c2ccccc2C1=O | 0.6
12 | CCN1C(=O)C(=O)c2cccc(OC)c2C1=O | 0.94
13 | CCN1C(=O)C(=O)c2cc(OC)c(OC)cc2C1=O | 1.31
14 | CCN1C(=O)C(=O)c2ccc(Cl)cc2C1=O | 1.79
15 | O=C1C(=O)N(c2ccccc2)C(=O)c2ccccc21 | 1.14
16 | CCN1C(=O)C(=O)c2cc3ccccc3cc2C1=O | 2.46
17 | CCCN1C(=O)C(=O)c2ccccc2C1=O | 1.6
18 | CCNC(=O)c1cccc2c1C(=O)C(=O)N(CC)C2=O | 0.3
19 | CC(C)N1C(=O)C(=O)c2ccccc2C1=O | 1.6
20 | CCOC(=O)c1cccc2c1C(=O)C(=O)N(CC)C2=O | 1.31
21 | CCC(C)N1C(=O)C(=O)c2ccccc2C1=O (configuration not stated) | 2.15
22 | CCN1C(=O)C(=O)c2c(OC)cc(OC)cc2C1=O | 1.23
